Assay results reported in article PMC6628435, “Chemical Synthesis, Proper Folding, Nav Channel Selectivity Profile and Analgesic Properties of the Spider Peptide Phlotoxin 1” (Toxins, 2019).
Bridge positions count the residues as written; N and C are the ends. Peptide text beside a SMILES is read from it.

Assays:
human Nav1.7 = biological target: T1, human Nav1.7 (Homo sapiens, UniProt Q15858); assay: Automated patch-clamp (Nanion SyncroPatch 384PE) on CHO cells expressing human Nav1.7; assay type: cell-based; conditions: for block of Nav1.7 inward current: 100 nM toxin, end of application (about 12-13 min), CHO hNav1.7; for Hill value: same dose-response fit as IC50, CHO hNav1.7 automated patch-clamp
T1 construct: expressed in transfected cells
Source text: We used a CHO mammalian cell line expressing the human Nav1.7 instead of Xenopus oocytes for the pharmacological evaluation. […] 100-ms pulses from −100 mV to −10 mV were applied at a frequency of 0.2 Hz and various concentrations of PhlTx1 were applied to the cells. […] Using a manual patch clamp, which is better suited to investigate current recovery from block than an automated patch clamp that requires several washing steps, we investigated the reversibility properties of a PhlTx1 block.
CHO cells stably expressing the human Nav1.7 cells were cultured in Dulbecco’s Modified Eagle’s Medium (DMEM) supplemented with 10% fetal calf serum, 1 mM pyruvic acid, 4 mM glutamine, 10 IU/mL penicillin and 10 μg/mL streptomycin (Gibco, Grand Island, NY, USA), and incubated at 37 °C in a 5% CO2 atmosphere. For automated patch-clamp recordings, cells were detached with trypsin and floating single cells were diluted (~300,000 cells/mL) in medium contained (in mM): 4 KCl, 140 NaCl, 5 Glucose, 10 HEPES (pH 7.4, osmolarity 290 mOsm).
Chips with single-hole and high-resistance (~6–7 MΩ) were used for CHO cell recordings. Voltage pulses and whole-cell recordings were achieved using the PatchControl384 v1.5.2 software (Nanion, Munich, Germany) and the Biomek v1.0 interface (Beckman Coulter). Prior recordings, dissociated cells were shaken at 60 RPM in a cell hotel reservoir at 10 °C. After cell catching, sealing, whole-cell formation, liquid application, recording, and data acquisition were all performed sequentially and automatically. […] Whole-cell experiments were done at −100 mV holding potential and at room temperature (18–22 °C), while currents triggered at −10 mV test potential were sampled at 20 kHz. Stimulation frequency was set at 0.2 Hz. Toxins were prepared at various concentrations in the extracellular solution, itself supplemented with 0.3% BSA. […] Compound solutions were diluted 3 times in the patch-clamp recording well by adding 30 μL to 60 μL external solution to reach the final reported concentration and the test volume of 90 μL. Percentages of current inhibitions were measured at the end of a 12- to 15-min application time (12-min for fast blocking toxins; 15-min for slow blocking ones). A single concentration of peptide was tested on each cell for building the full-inhibition curves.

human Nav1.7 channel = conditions: ref [45]; cited from earlier work
[1] = system: formalin-induced spontaneous pain behavior; assay: Formalin pain test in mice after intrathecal injection; assay type: in vivo, C57BL/6J mice; conditions: mouse, in vivo

T1 sequence (Q15858 whole entry): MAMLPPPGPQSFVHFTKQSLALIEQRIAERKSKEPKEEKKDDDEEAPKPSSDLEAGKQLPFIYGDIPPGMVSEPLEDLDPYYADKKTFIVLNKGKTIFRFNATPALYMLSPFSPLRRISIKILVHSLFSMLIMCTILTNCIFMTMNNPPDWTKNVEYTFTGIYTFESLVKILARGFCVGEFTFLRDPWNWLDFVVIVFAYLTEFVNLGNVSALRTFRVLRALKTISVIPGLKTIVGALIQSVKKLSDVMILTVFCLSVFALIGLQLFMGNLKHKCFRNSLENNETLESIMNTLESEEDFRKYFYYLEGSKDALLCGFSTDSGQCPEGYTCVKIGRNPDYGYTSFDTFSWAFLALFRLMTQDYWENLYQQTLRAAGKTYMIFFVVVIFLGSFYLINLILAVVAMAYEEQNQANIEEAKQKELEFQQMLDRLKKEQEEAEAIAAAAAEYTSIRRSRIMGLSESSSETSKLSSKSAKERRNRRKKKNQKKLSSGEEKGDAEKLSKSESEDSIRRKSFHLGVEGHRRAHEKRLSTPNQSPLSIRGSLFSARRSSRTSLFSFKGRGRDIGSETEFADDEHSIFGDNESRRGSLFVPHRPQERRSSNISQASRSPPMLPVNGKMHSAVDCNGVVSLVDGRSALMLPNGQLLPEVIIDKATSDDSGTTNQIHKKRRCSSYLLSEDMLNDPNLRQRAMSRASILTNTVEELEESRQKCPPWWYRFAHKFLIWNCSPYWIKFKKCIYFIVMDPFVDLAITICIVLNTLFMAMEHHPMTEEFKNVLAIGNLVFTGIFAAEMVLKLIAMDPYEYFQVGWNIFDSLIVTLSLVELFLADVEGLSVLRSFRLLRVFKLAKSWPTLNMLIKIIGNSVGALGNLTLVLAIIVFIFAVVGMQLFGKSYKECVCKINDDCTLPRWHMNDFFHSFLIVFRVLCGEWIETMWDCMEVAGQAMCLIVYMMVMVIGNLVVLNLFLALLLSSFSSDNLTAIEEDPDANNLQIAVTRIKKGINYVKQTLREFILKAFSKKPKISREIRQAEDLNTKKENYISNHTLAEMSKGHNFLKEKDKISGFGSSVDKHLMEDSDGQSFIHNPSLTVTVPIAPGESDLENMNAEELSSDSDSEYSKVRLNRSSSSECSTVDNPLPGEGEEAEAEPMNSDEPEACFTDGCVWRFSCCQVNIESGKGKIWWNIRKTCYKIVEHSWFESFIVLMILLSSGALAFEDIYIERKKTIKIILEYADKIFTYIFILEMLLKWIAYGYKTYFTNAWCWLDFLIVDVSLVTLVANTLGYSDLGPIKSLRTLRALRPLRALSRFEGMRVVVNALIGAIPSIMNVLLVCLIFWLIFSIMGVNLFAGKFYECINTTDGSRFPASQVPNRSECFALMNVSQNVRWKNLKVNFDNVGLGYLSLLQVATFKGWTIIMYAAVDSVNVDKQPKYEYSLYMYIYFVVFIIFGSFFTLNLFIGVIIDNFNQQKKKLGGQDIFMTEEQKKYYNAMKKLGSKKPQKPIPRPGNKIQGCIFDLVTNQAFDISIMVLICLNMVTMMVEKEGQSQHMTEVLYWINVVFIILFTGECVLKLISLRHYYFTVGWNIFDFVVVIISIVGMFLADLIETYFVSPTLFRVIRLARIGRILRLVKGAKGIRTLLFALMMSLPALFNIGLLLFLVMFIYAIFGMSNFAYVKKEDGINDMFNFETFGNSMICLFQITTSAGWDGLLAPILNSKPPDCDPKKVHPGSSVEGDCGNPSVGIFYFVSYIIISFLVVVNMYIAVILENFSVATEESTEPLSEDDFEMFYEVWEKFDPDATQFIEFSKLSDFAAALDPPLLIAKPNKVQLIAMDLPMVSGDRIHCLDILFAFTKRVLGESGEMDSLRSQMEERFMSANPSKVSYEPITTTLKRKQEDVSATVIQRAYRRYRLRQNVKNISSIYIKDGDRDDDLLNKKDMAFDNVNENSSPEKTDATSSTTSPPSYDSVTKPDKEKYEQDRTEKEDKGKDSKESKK

Structure (SMILES)	block of Nav1.7 inward current (human Nav1.7)	IC50 (human Nav1.7)	further results
CSCC[C@@H]1NC(=O)[C@H](Cc2ccc(O)cc2)NC(=O)[C@H](CCCNC(=N)N)NC(=O)[C@@H](NC(=O)[C@@H](N)CC(=O)O)CSSC[C@@H]2NC(=O)[C@@H]3CSSC[C@@H](C(=O)N[C@@H](C)C(=O)N[C@@H](Cc4c[nH]c5ccccc45)C(=O)N[C@@H](CC(=O)O)C(=O)N[C@@H](Cc4ccccc4)C(=O)N[C@H](C(=O)N[C@@H](Cc4ccccc4)C(=O)N[C@H](C(=O)O)[C@@H](C)O)[C@@H](C)O)NC(=O)[C@H](Cc4ccc(O)cc4)NC(=O)[C@H](CCCCN)NC(=O)[C@H](CCSC)NC(=O)[C@H](CCCCN)NC(=O)[C@H](CCCNC(=N)N)NC(=O)[C@H](CCCCN)NC(=O)[C@H](CSSC[C@H](NC(=O)[C@H](CC(=O)O)NC(=O)CNC(=O)[C@H](Cc4ccccc4)NC1=O)C(=O)N[C@@H](CCC(=O)O)C(=O)N[C@@H](CCCCN)C(=O)N[C@@H](CC(=O)O)C(=O)N[C@@H](CCC(=O)O)C(=O)N[C@@H](CC(=O)O)C(=O)N3)NC(=O)CNC(=O)[C@H](CC(C)C)NC(=O)[C@H](Cc1c[nH]cn1)NC(=O)[C@H](CCCCN)NC2=O [Pn3a]	fully insensitive	–	Hill value (human Nav1.7): 3; IC50 (human Nav1.7 channel): 0.9 nM
CC(C)C[C@@H]1NC(=O)[C@H](Cc2c[nH]c3ccccc23)NC(=O)[C@H](Cc2ccc(O)cc2)NC(=O)[C@H](CCCNC(=N)N)NC(=O)[C@@H](NC(=O)[C@@H](N)CCC(=O)O)CSSC[C@@H]2NC(=O)[C@@H]3CSSC[C@@H](C(=O)N[C@H](C(=O)N[C@@H](Cc4c[nH]c5ccccc45)C(=O)N[C@@H](CC(=O)O)C(=O)NCC(=O)N[C@H](C(=O)N[C@@H](Cc4ccccc4)C(=O)N[C@@H](CO)C(=O)O)[C@@H](C)O)C(C)C)NC(=O)[C@H](Cc4c[nH]c5ccccc45)NC(=O)CNC(=O)[C@H](Cc4c[nH]cn4)NC(=O)[C@H](CCCNC(=N)N)NC(=O)[C@H](CCCNC(=N)N)NC(=O)[C@H](CO)NC(=O)[C@H](CSSC[C@H](NC(=O)CNC(=O)CNC1=O)C(=O)N[C@@H](CO)C(=O)N[C@@H](C)C(=O)NCC(=O)N[C@@H](CCC(N)=O)C(=O)N[C@@H]([C@@H](C)O)C(=O)N3)NC(=O)[C@H](C(C)C)NC(=O)[C@H](CC(C)C)NC(=O)[C@H](Cc1c[nH]cn1)NC(=O)[C@H](CCCCN)NC2=O [ProTx-I]	–	7.1 nM	–
CN1CC[C@]23c4c5ccc(O)c4O[C@H]2[C@@H](O)C=C[C@H]3[C@H]1C5 [morphine, reference compound]	–	–	formalin-induced pain behavior (licking), Phase II (inflammation, 10–45 min) [1]: 0
CC[C@H](C)[C@@H]1NC(=O)[C@H](CC(N)=O)NC(=O)[C@H](CCCNC(=N)N)NC(=O)[C@@H]2CCCN2C(=O)[C@H](Cc2c[nH]c3ccccc23)NC(=O)[C@H](CCCCN)NC(=O)[C@H](CO)NC(=O)[C@H](CCCCN)NC(=O)[C@@H]2CSSC[C@@H]3NC(=O)[C@H](CCCCN)NC(=O)CNC(=O)[C@H](Cc4c[nH]c5ccccc45)NC(=O)[C@H](Cc4ccccc4)NC(=O)[C@H](CCCNC(=N)N)NC(=O)[C@H](C(C)C)NC(=O)[C@@H](NC(=O)[C@@H](N)CC(=O)O)CSSC[C@H](NC(=O)[C@H](CSSC[C@@H](C(=O)N[C@H](C(=O)N[C@@H](Cc4c[nH]c5ccccc45)C(=O)N[C@@H](CC(=O)O)C(=O)NCC(=O)N[C@@H](CO)C(=O)N[C@H](C(=O)O)C(C)C)C(C)C)NC1=O)NC(=O)[C@H](CC(=O)O)NC(=O)[C@H](CO)NC(=O)[C@H]([C@@H](C)O)NC(=O)[C@H](CCC(N)=O)NC(=O)[C@H](CO)NC3=O)C(=O)N1CCC[C@H]1C(=O)N[C@@H](Cc1c[nH]cn1)C(=O)N[C@@H](CC(C)C)C(=O)N[C@@H](C)C(=O)N2 [GrTx1]	about 50%	15.3 nM	–
CC(C)C[C@H](NC(=O)[C@H](CCCCN)NC(=O)[C@H](Cc1c[nH]c2ccccc12)NC(=O)[C@H](CCCCN)NC(=O)[C@@H]1CSSC[C@@H]2NC(=O)[C@H](CCC(=O)O)NC(=O)[C@H](CC(N)=O)NC(=O)[C@H](CCCCN)NC(=O)CNC(=O)[C@@H]3CCCN3C(=O)[C@H]([C@@H](C)O)NC(=O)[C@@H]3CSSC[C@H](NC(=O)[C@H](C(C)C)NC(=O)[C@H](CCCNC(=N)N)NC(=O)[C@H](CC(N)=O)NC(=O)[C@@H]4CCCN4C(=O)[C@H](CSSC[C@H](NC(=O)[C@H](C)N)C(=O)N[C@@H](CCCCN)C(=O)NCC(=O)N[C@@H](C(C)C)C(=O)N[C@@H](Cc4ccccc4)C(=O)N[C@@H](CC(=O)O)C(=O)N[C@@H](C)C(=O)N3)NC2=O)C(=O)N[C@@H](CO)C(=O)N[C@@H](CC(=O)O)C(=O)N[C@@H](CCCCN)C(=O)N[C@@H](Cc2c[nH]cn2)C(=O)N[C@@H](CCCCN)C(=O)N[C@@H](Cc2c[nH]c3ccccc23)C(=O)N1)C(=O)O [HwTx-I] (H-ACKGVFDACTPGKNECCPNRVCSDKHKWCKWKL-OH; disulfide 2-17, 9-22, 16-29; N-terminus and C-terminus assumed)	incomplete block	–	time constant of inhibition (τ) (human Nav1.7; 100 nM, mono-exponential fit (PhlTx1 n = 8)): 492 s; Hill value (human Nav1.7): 2.3
CC[C@H](C)[C@H](NC(=O)[C@H](CCC(=O)O)NC(=O)[C@H](Cc1ccc(O)cc1)NC(=O)[C@H](CCCCN)NC(=O)[C@@H]1CSSC[C@@H]2NC(=O)[C@H](CCC(N)=O)NC(=O)[C@H](CC(=O)O)NC(=O)[C@H](CC(N)=O)NC(=O)[C@H](CO)NC(=O)[C@@H]3CCCN3C(=O)[C@H](CC(N)=O)NC(=O)[C@@H]3CSSC[C@H](NC(=O)[C@H](C(C)C)NC(=O)[C@H](CC(C)C)NC(=O)[C@H](CC(N)=O)NC(=O)[C@H](CO)NC(=O)[C@H](CO)NC(=O)[C@H](CCCCN)NC(=O)[C@H](CSSC[C@H](NC(=O)[C@@H](N)CCC(=O)O)C(=O)N[C@@H](CC(C)C)C(=O)NCC(=O)N[C@@H](Cc4ccccc4)C(=O)NCC(=O)N[C@@H](CCCCN)C(=O)NCC(=O)N3)NC2=O)C(=O)N[C@@H](CO)C(=O)N[C@@H](CCCNC(=N)N)C(=O)N[C@@H](CCCCN)C(=O)N[C@@H](Cc2c[nH]cn2)C(=O)N[C@@H](CCCNC(=N)N)C(=O)N[C@@H](Cc2c[nH]c3ccccc23)C(=O)N1)C(N)=O [HnTx-IV]	–	4.3 nM	–
CC[C@H](C)[C@H](NC(=O)[C@H](CCCCN)NC(=O)[C@H](CCCCN)NC(=O)[C@H](CCCCN)NC(=O)[C@@H]1CSSC[C@@H]2NC(=O)[C@H](CCCCN)NC(=O)[C@H](CCCNC(=N)N)NC(=O)[C@H](CCC(=O)O)NC(=O)[C@H](CCC(=O)O)NC(=O)[C@H](CC(=O)O)NC(=O)[C@@H]3CSSC[C@H](NC(=O)[C@H](C(C)C)NC(=O)[C@H](CC(C)C)NC(=O)CNC(=O)[C@H](CCC(=O)O)NC(=O)[C@H](CSSC[C@H](NC(=O)[C@@H](N)Cc4ccc(O)cc4)C(=O)N[C@@H](CCC(N)=O)C(=O)N[C@@H](CCCCN)C(=O)N[C@@H](Cc4c[nH]c5ccccc45)C(=O)N[C@@H](CCSC)C(=O)N[C@@H](Cc4c[nH]c5ccccc45)C(=O)N[C@@H]([C@@H](C)O)C(=O)N3)NC2=O)C(=O)N[C@@H](CCCNC(=N)N)C(=O)N[C@@H](CC(C)C)C(=O)N[C@@H](Cc2c[nH]c3ccccc23)C(=O)N1)C(=O)N[C@@H](CCC(=O)O)C(=O)N[C@@H](Cc1c[nH]c2ccccc12)C(=O)O [GsAFII] (H-YCQKWMWTCDEERKCCEGLVCRLWCKKKIEW-OH; disulfide 2-16, 9-21, 15-25)	–	13.6 nM	–
